In ChEMBL document CHEMBL1201862, “PubChem BioAssay data set” (2004):
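The compound was tested at five concentrations on cells cultured in 96-well plates, with a 48-hour exposure period. Here, GI50 denotes the concentration required for 50% inhibition of growth.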 Active and inactive are the calls of the source. Cut-off read from the data, not from the text of the source: active = GI50 up to about 1.1 µM and inactive = higher.

Assays:
Experiment in all cases: growth of human tumour cells (NCI), 48 h
[1] = system: T47D
[2] = system: SK-MEL-2
[3] = system: MDA-N
[4] = system: MCF7
[5] = system: SK-OV-3
[6] = system: NCI/ADR-RES
[7] = system: SN12C
[8] = system: NCI-H522
[9] = system: A549
[10] = system: K562
[11] = system: Malme-3M
[12] = system: TK-10
[13] = system: OVCAR-8
[14] = system: HCT-15
[15] = system: BT-549
[16] = system: MOLT-4
[17] = system: A498
[18] = system: NCI-H460
[19] = system: CCRF-CEM

Row | SMILES | GI50 [1] | GI50 [2] | GI50 [3] | GI50 [4] | GI50 [5] | GI50 [6] | GI50 [7] | GI50 [8] | GI50 [9] | GI50 [10] | GI50 [11] | GI50 [12] | GI50 [13] | GI50 [14] | GI50 [15] | GI50 [16] | GI50 [17] | GI50 [18] | GI50 [19]
1 | O=C1C[S+]([O-])C23c4cc5ccccc5n4CCC2CCCN13 (configuration not stated) | > 100 µM (inactive) | > 100 µM (inactive) | > 100 µM (inactive) | > 100 µM (inactive) | > 100 µM (inactive) | > 100 µM (inactive) | > 100 µM (inactive) | > 100 µM (inactive) | > 100 µM (inactive) | > 100 µM (inactive) | > 100 µM (inactive) | > 100 µM (inactive) | > 100 µM (inactive) | > 100 µM | > 100 µM (inactive) | > 100 µM (inactive) | > 100 µM (inactive) | – | –
2 | O=C1/C(=C/c2ccc(O)cc2)CCCC1CN1CCCCC1 (configuration not stated) | 2.32 µM (inactive) | 11.2 µM (inactive) | 3.47 µM (inactive) | 1.69 µM (inactive) | 16.6 µM (inactive) | 8.2 µM (inactive) | 2.29 µM (inactive) | 1.25 µM (inactive) | 17.2 µM (inactive) | 1.42 µM (inactive) | 1.88 µM (inactive) | 2.55 µM (inactive) | 5.92 µM (inactive) | 1.32 µM | 2.55 µM (inactive) | 2.2 µM (inactive) | 6.84 µM (inactive) | 14.3 µM (inactive) | 2.57 µM (inactive)
3 | CCNCC(O)COc1ccc2c(c1)[n+]([O-])nc(N)[n+]2[O-] (configuration not stated) | 81.8 µM (inactive) | 39.6 µM (inactive) | > 100 µM (inactive) | 74 µM (inactive) | 10.6 µM (inactive) | > 100 µM (inactive) | 45.4 µM (inactive) | 12.6 µM (inactive) | 24.2 µM (inactive) | 35.2 µM (inactive) | – | > 100 µM (inactive) | 56 µM (inactive) | 63.7 µM | > 100 µM (inactive) | 14.5 µM (inactive) | 27.8 µM (inactive) | > 10 µM (inactive) | 19 µM (inactive)
4 | COc1ccc(C(OCC2OC(n3cnc4c(=O)n(Cc5ccccc5[N+](=O)[O-])nnc43)C(O)C2O)(c2ccccc2)c2ccc(OC)cc2)cc1 (configuration not stated) | 11.5 µM (inactive) | 14.7 µM (inactive) | 7.52 µM (inactive) | 4.28 µM (inactive) | 20.4 µM (inactive) | 19.1 µM (inactive) | 6.9 µM (inactive) | 6.49 µM (inactive) | 5.57 µM (inactive) | 4.6 µM (inactive) | 14.7 µM (inactive) | 9.53 µM (inactive) | 8.11 µM (inactive) | 9.31 µM | 16.4 µM (inactive) | 2.31 µM (inactive) | 4.46 µM (inactive) | 5.57 µM (inactive) | 3.76 µM (inactive)
5 | O=C1C=C(c2ccccc2)O/C1=C/C(=O)c1ccc(Cl)cc1 | > 10 µM (inactive) | – | 16.1 µM (inactive) | 16.5 µM (inactive) | 36.1 µM (inactive) | 22.1 µM (inactive) | 16 µM (inactive) | 11.1 µM (inactive) | – | 8.13 µM (inactive) | 17.2 µM (inactive) | 20.2 µM (inactive) | 23.1 µM (inactive) | 22 µM | 16.2 µM (inactive) | 2.85 µM (inactive) | 23.4 µM (inactive) | 20.2 µM (inactive) | 3.35 µM (inactive)
6 | CN(C)C(Cc1c[nH]cn1)C(=O)N1CCCC1C(N)=O (configuration not stated) | > 100 µM (inactive) | – | > 100 µM (inactive) | > 100 µM (inactive) | > 100 µM (inactive) | > 100 µM (inactive) | > 100 µM (inactive) | > 100 µM (inactive) | > 100 µM (inactive) | > 100 µM (inactive) | > 100 µM (inactive) | > 100 µM (inactive) | > 100 µM (inactive) | > 100 µM | > 100 µM (inactive) | > 100 µM (inactive) | 22.9 µM (inactive) | > 100 µM (inactive) | > 100 µM (inactive)
7 | CCN(CC)CCNc1ccc2ncn3c4c(OC)ccc(O)c4c(=O)c1c23 | > 100 µM (inactive) | > 100 µM (inactive) | 21.1 µM (inactive) | 3.52 µM (inactive) | 66.2 µM (inactive) | 2.54 µM (inactive) | 4.82 µM (inactive) | 1.41 µM (inactive) | 2.86 µM (inactive) | 8.13 µM (inactive) | 19.4 µM (inactive) | 33 µM (inactive) | 6.93 µM (inactive) | 3.63 µM | 37.3 µM (inactive) | 0.625 µM (active) | 10 µM (inactive) | 0.764 µM (active) | 4.12 µM (inactive)
